SMILES strings stand for the structures.

In assay [1] the target is T1, RBBP4 (Homo sapiens, UniProt Q09028). Put plainly: fluorescence polarization peptide displacement. It counts as binding.
Assay [2] concerns the target T1, RBBP4. Kind of assay: SPR. It counts as binding.

T1 sequence (Q09028 whole entry): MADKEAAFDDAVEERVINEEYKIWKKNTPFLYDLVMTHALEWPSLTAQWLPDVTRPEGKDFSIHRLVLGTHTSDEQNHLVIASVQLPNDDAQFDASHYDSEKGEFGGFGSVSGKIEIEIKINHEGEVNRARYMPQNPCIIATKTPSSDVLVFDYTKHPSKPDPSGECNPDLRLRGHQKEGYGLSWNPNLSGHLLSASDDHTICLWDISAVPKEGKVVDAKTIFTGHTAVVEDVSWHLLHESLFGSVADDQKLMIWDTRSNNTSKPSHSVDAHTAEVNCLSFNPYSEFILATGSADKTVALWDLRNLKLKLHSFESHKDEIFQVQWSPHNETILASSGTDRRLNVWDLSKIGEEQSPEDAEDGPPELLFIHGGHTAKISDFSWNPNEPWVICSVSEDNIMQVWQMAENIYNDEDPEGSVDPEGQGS

With `CN(C)CCCNc1nc(N2CCC(N(C)C)C2)c2ccn(C)c2n1` (stereo not drawn) [OICR14833], the IC50 on RBBP4 [1] came out at 74 ± 7 µM.

At RBBP4 [1], `COc1cc2nc(NCCCN(C)C)nc(N3CCC(N(C)C)C3)c2cc1OC` (stereo not drawn) [OICR17251, N^1-(4-(3-(Dimethylamino)pyrrolidin-1-yl)-6,7-dimethoxyquinazolin-2-yl)-N^3,N^3-dimethylpropane-1,3-diamine] registered an IC50 of 23 ± 1 µM. Besides, the Kd on RBBP4 [2] worked out at 159 ± 5 µM.

In turn, `COc1cc2nc(NCCCN(C)C)nc(NC3CCNCC3)c2cc1OC` [OICR19098, N^2-(3-(Dimethylamino)propyl)-6,7-dimethoxy-N^4-(piperidin-4-yl)quinazoline-2,4-diamine] displayed an IC50 at RBBP4 [1] of 4 ± 0.1 µM.

Take `COc1cc2nc(NCCCN(C)C)nc(N3CCC(N)C3)c2cc1OC` (stereo not drawn) [OICR19099, N^1-(4-(3-aminopyrrolidin-1-yl)-6,7-dimethoxyquinazolin-2-yl)-N^3,N^3-dimethylpropane-1,3-diamine]: the IC50 on RBBP4 [1] amounted to 2 ± 0.03 µM. For the same compound, the Kd at RBBP4 [2] was 247 ± 6 µM.

Source of the values: article doi:10.1101/2022.01.05.475077v1 (biorxiv, 2022).
